Test results reported in patent US10745393B2, “Small molecular probes, processes and use thereof” (JAWAHARLAL NEHRU CENTRE FOR ADVANCED SCIENTIFIC RESEARCH, priority 2014, dated 2020).
Several values for one entry are separate records, joined by “and”; a condition that tells them apart may be missing. Equal values may be shown once. Entries after “also recorded” stand apart in the source; their conditions may differ.

Experiments:
HEK293 cells [1] = test: Nuclear staining with cytoplasmic marker α-tubulin; format: cell-based; details: TC 5 μM
[2] = Absorption, emission and quantum yield of probes in Tris-HCl buffer without DNA; format: physicochemical
[3] = target: ThT/Aβ42 aggregate complex (Homo sapiens, UniProt P05067); test: ThT displacement / FRET assay; format: binding; details: decay at 483 nm, enhancement at 654 nm
Sequence of ThT/Aβ42 aggregate complex (P05067 672-713 limits assumed, one chain of several): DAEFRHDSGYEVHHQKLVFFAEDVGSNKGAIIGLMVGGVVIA

HepG2 cells = test: Confocal fluorescence staining of mammalian cells at low probe concentration; format: cell-based, human; details: (FIG. 44 legend 2 μM)
d(AATT)5 = test: Absorption / fluorescence response with self-complementary d(AATT)5 duplex; format: binding
(AT)10 [4] = test: Absorption / fluorescence response of probes with dsDNA (AT)10; format: binding; details: probe 10 μM
(GC)10 [5] = test: Thermal denaturation (UV-melting) of dsDNA with probe TC; format: binding
(D2)mix = test: Fluorescence response of probes with dsDNA (D2)mix; format: binding
(GC)10 [6] = test: Agarose gel electrophoresis staining of dsDNA band; format: binding; details: 3% agarose gel, about 0.6 μg dsDNA, UV-illumination
Plasmodium falciparum = test: Live cell fluorescence imaging of malaria parasites in erythrocytes; format: cell-based, P. falciparum 3D7 strain; details: (FIG. 38 legend 1 and 2 μM), 30 minutes
[7] = tested on: ssDNA oligonucleotides (dA10, dT10, dG10 and dC10); test: Fluorescence emission in presence of ssDNA oligonucleotides; format: binding; details: probe 10 μM, Tris-HCl buffer
(AT)20 [8] = test: Agarose gel electrophoresis staining of dsDNA band; format: binding; details: 3% agarose gel, about 0.6 μg dsDNA, UV-illumination
cells [9] = test: Comparison of DNA dyes: cell permeability; format: cell-based; details: Table 3, probe of the disclosure
[10] = target: Aβ42 fibrillar aggregates (Homo sapiens, UniProt P05067); test: pH-dependent colorimetric and fluorometric response; format: binding; details: TC 10 μM, PBS buffer
Sequence of Aβ42 fibrillar aggregates (P05067 672-713 limits assumed): as the sequence (P05067 672-713 limits assumed, one chain of several) above

(D1)mix = test: Agarose gel electrophoresis staining of dsDNA band; format: binding; details: 3% agarose gel, about 0.6 μg dsDNA, UV-illumination
cells [11] = test: Comparison of DNA dyes: toxicity; format: cell-based; details: Table 3, probe of the disclosure
Text: The major advantages of probe TC are: longer excitation/emission wavelengths (which avoids the cell damage due to the UV-light absorption commonly observed with probes like DAPI and Hoechst dyes, and auto-fluorescence from the cellular organelles and biomolecules), larger stoke shift (this provides additional advantage that avoids the self-absorption of higher energy part of their emission, useful in FRET and BRET based assays), good cell permeability (this is the major limitation of existing probes like propidium iodide, TO-PRO-dyes), non-toxicity (toxicity is the major limitation of NIR-fluorescence probes like DRAQ5 probe) and specific staining (commonly observed with SYTO and other dyes are non-specific in nature). Many commercial/reported dyes in literature are known to bind single stranded DNA, RNA etc. The probe TC is highly specific to double stranded DNA. […] In presence of AT-rich DNA, TC is a better probe than EtBr and PI which are highly toxic to cells.

(AT)20 [12] = test: Thermal denaturation (UV-melting) of dsDNA with probe TC; format: binding
[13] = target: α-Synuclein (α-Syn) aggregates (Homo sapiens, UniProt P37840); test: Selectivity: fluorescence with α-synuclein aggregates; format: binding; details: α-Syn aggregates 20 μM
(AT)10 [14] = test: Thermal denaturation (UV-melting) of dsDNA with probe TC; format: binding
HEK293 cells [15] = test: DNase I and RNase digestion studies; format: cell-based; details: 2 hours
Method: DNase I is known to degrade nuclear DNA while RNase degrades RNA in the cytoplasm by catalyzing phosphodiester bonds cleavage. HEK293 cells are fixed with chilled methanol for about 1 minute at room temperature and permeabilized with 0.1% Triton X-100 in PBS for about 2×5 minutes. After rinsing with PBS twice, for one set of experiments, cells are treated with probe TC (5 μM) for about 15 min at room temperature in three adjacent wells. A total of about 200 μL PBS (as control experiment), about 100 μg/mL DNase I (Sigma), or about 30 μg/ml DNase-Free RNase (GE) is added into the three adjacent wells and incubated at about 37° C. for about 2 hours. For another set of experiments, instead of treating with probe TC, cells are only treated with about 200 μL PBS (as control experiment), about 100 μg/ml DNase I (Sigma), or about 30 μg/mL DNase-Free RNase (GE) by adding into the three adjacent wells and incubating at about 37° C. for about 2 hours. […] After two more washes in PBS with 0.1% Triton X-100, the cover slips are washed in PBS, rinsed in ddH2O and briefly dipped in 100% ethanol. After a quick dry, cover slips are mounted with 70% glycerol. Images are captured using a Carl Zeiss Laser Scanning Microscope (LSM510 META) using an equal exposure time for control, DNase I, and RNase experiments. Experiments are done in duplicate.

HEK293 cells [16] = test: MTT cytotoxicity assay; format: cell-based
Method: 10,000 HEK293 cells are seeded in 96-well plate and cultured for about 12 hours. […] Water is used as a control. About 20 μL of MTT (about 5 mg/mL) is added in each well, incubated for about 3 hours at about 37° C. and about 100 μL of DMSO is added. Readings are taken at about 570 nm in ELISA reader (VERSA Max microplate reader, Molecular Devices). The data is normalized with control and plotted with mean and standard error.

Aβ42 aggregates = Aβ42 aggregates (Homo sapiens, UniProt P05067); test: Absorption / fluorescence response with Aβ42 fibrillar aggregates; format: binding
Sequence of Aβ42 aggregates (P05067 672-713 limits assumed): as the sequence (P05067 672-713 limits assumed, one chain of several) above

(AT)20 [17] = test: Fluorescence response / quantum yield of probes with dsDNA (AT)20; format: binding
[18] = Absorption, emission and quantum yield of probes without Aβ42 aggregates; format: physicochemical
[19] = increasing concentrations of TC (1 μM to 20 μM), FIG. 10

For `CCN(CC)c1ccc2cc(/C=C/c3sc4ccccc4[n+]3C)c(=O)oc2c1` [TC, (E)-3-(2-(N-methyl-benzo[d]thiazol-2-yl)vinyl)-7-(diethylamino)-2H-chromen-2-one], the “co-localization with cytoplasmic marker α-tubulin” value (HEK293 cells [1]) was “does not co-localize with cytoplasmic marker α-tubulin”, the “ΦF in Buffer” value ([2]; Tris-HCl buffer (100 mM, pH 7.4), absence of DNA) was 0.03 and the “emission (fluorescence) maxima” value ([2]; Tris-HCl buffer, no DNA, very weak fluorescence) was 641 nm. The absorption maxima ([2]; probe 10 μM, Tris-HCl buffer, no DNA) was 528 nm, the “displacement of ThT from ThT/Aβ42 aggregate complex” value [3] was “effective displacement of ThT by TC” and the “fluorescence / uptake in HepG2 cells” value (HepG2 cells) was “does not show any detectable fluorescence; also recorded: No detectable uptake”. The “fluorescence enhancement in presence of d(AATT)5” value (d(AATT)5) was about 16 folds, the “emission maxima in presence of (AT)10” value ((AT)10 [4]) was 616 nm and the “fluorescence enhancement in presence of (AT)10” value ((AT)10 [4]; DNA 0 to 12 μM) was about 8 fold. The “Tm(DNA + TC)” value ((GC)10 [5]) was 60.3 °C, the “fluorescence enhancement in presence of (D2)mix” value ((D2)mix; TC 10 μM, DNA 0 to 12 μM) was about 1.5 fold and the “fluorescence enhancement in presence of (D2)mix” value ((D2)mix; [19]) was about 1.5 fold. For the same compound, the “gel staining of (GC)10 band” value ((GC)10 [6]) was “not stained”, the “staining of trophozoite stage parasites in red blood cells” value (Plasmodium falciparum) was “specifically binds to the parasite cells within the red blood cells; also recorded: accumulated specifically in the nucleus of the parasitized red blood cell” and the “emission behaviour in presence of ssDNA” value [7] was “do not show significant changes in the emission behaviour”. For the same compound, the “gel staining of (AT)20 band” value ((AT)20 [8]) was “strong fluorescence intensity”, the Cell permeability (cells [9]) was “Permeable” and the “pH range in which colorimetric and emission properties with Aβ42 aggregates are unaffected / usable” value [10] was 3 to 8 and 2-8. The “gel staining of (D1)mix band” value ((D1)mix) was “strong fluorescence intensity”, the Toxicity (cells [11]) was “Non-Toxic” and the “Tm(DNA + TC)” value ((AT)20 [12]) was 49.7 °C. For the same compound, the “fluorescence enhancement with α-Syn aggregates” value [13] was “does not lead to significant fluorescence enhancements”, the “Tm(DNA + TC)” value ((AT)10 [14]) was 25.6 °C and the “fluorescence nuclear staining after DNase I digestion” value (HEK293 cells [15]; DNase I about 100 μg/mL) was “almost completely diminished”. The “fluorescence nuclear staining after RNase digestion” value (HEK293 cells [15]; RNase about 30 μg/mL) was “does not affect the fluorescence staining”, the “cytotoxicity, dose dependent MTT” value (HEK293 cells [16]; HEK293 cells, 2.5, 5 and 7.5 μM, about 30 minutes) was “non-toxic” and the viable cells (HEK293 cells [16]; HEK293 cells, about 5 μM TC, about 24 hours) was “about 64%”. The “absorption maximum TC/fibril” value (Aβ42 aggregates; Experiment) was 595 nm, the “quantum yield upon binding with Aβ42 aggregates” value (Aβ42 aggregates; TC 2 μM) was 40% and the “persistence of fluorescence of stained Aβ42 aggregates” value (Aβ42 aggregates; aging) was “retain red fluorescence even after 50 days of aging”. The “emission maximum in presence of Aβ42 aggregates” value (Aβ42 aggregates; probe 2 μM) was 654 nm, the “fluorescence enhancement in presence of Aβ42 aggregates” value (Aβ42 aggregates; probe 2 μM, PBS buffer) was about 30 fold and the “fluorescence enhancement in presence of (AT)20” value ((AT)20 [17]; TC 10 μM, DNA 0 to 12 μM) was about 16 fold. For the same compound, the “ΦF with (AT)20” value ((AT)20 [17]; Tris-HCl buffer (100 mM, pH 7.4)) was 0.36, the “comparative fluorescence response in presence of (AT)20” value ((AT)20 [17]; dye 10 μM, Tris-HCl buffer) was “excellent fluorescence marker” and the “probe concentration at which fluorescence reaches saturation” value ((AT)20 [17]; fixed dsDNA 12 μM) was 18 to 22 µM. For the same compound, the “fluorescence enhancement in presence of (AT)20” value ((AT)20 [17]; [19]) was about 16 fold, the “absorption maximum TC/chloroform” value ([18]; Experiment) was 561 nm and the “absorption maximum TC/water” value ([18]; Experiment) was 537 nm. The “absorption maximum in absence of Aβ42 aggregates” value ([18]; PBS buffer (10 mM, pH 7.4)) was 537 nm and the “emission maximum in absence of Aβ42 aggregates” value ([18]; PBS buffer, very weak fluorescence) was 638 nm.
